What was measured:
[1] = Pharmacokinetic screening in dogs, oral administration, plasma LC-MS/MS; conditions: dogs, single oral dose (0.3 mg/kg per FIG. 1); for LC/MS analysis, plasma level at time 0: time 0 min; for LC/MS analysis, plasma level at time 15: time 15 min; for LC/MS analysis, plasma level at time 30: time 30 min; for LC/MS analysis, plasma level at time 60: time 60 min; for LC/MS analysis, plasma level at time 120: time 120 min; for LC/MS analysis, plasma level at time 180: time 180 min; for LC/MS analysis, plasma level at time 240: time 240 min; for LC/MS analysis, plasma level at time 300: time 300 min; for LC/MS analysis, plasma level at time 360: time 360 min; for LC/MS analysis, plasma level at time 480: time 480 min; for LC/MS analysis, plasma level at time 1440: time 1440 min
human sEH = human sEH (Homo sapiens (Human), UniProt P34913); assay: Inhibition of human soluble epoxide hydrolase (IC50; one of three substrate methods); format: biochemical; conditions: recombinant human sEH;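 further: enzyme expressed in baculovirus and affinity-purified, assays run in triplicate, with substrate and read-out differing among the three methods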
[2] = Solubility in oil of the dosing preparation (compound in Crisco); format: physicochemical; conditions: appearance in oil, in parentheses after compound number
Excerpt: The dogs are fed immediately thereafter.

human sEH, sequence (P34913 whole entry): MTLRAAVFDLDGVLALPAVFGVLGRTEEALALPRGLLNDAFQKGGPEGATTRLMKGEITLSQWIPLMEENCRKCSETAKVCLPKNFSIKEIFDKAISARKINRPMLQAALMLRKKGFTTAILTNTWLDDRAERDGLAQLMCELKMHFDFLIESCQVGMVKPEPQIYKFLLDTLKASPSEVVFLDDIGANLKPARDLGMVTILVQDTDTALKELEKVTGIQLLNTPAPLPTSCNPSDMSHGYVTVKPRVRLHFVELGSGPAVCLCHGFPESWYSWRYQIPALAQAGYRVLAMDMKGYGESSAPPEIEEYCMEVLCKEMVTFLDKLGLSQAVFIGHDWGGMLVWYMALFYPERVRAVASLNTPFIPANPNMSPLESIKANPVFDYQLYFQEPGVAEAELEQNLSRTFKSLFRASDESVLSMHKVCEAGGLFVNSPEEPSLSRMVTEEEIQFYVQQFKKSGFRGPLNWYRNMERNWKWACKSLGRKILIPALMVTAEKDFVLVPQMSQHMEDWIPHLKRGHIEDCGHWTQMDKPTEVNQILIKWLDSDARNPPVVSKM

LC/MS analysis, plasma level at time 0 [1]	LC/MS analysis, plasma level at time 15 [1]	LC/MS analysis, plasma level at time 30 [1]	LC/MS analysis, plasma level at time 60 [1]	LC/MS analysis, plasma level at time 120 [1]	LC/MS analysis, plasma level at time 180 [1]	LC/MS analysis, plasma level at time 240 [1]	LC/MS analysis, plasma level at time 300 [1]	LC/MS analysis, plasma level at time 360 [1]	LC/MS analysis, plasma level at time 480 [1]	LC/MS analysis, plasma level at time 1440 [1]	IC50 (human sEH) [nM]	solubility in oil [2]	Structure (SMILES)
0.00	0.00	0.19	0.34	0.11	0.00	0.00	0.00	0.00	0.00	0.00	1.1	1204 (Opaque)	COC(=O)c1ccc(C(=O)N2CCC(NC(=O)NC34CC5CC(CC(C5)C3)C4)CC2)cc1 [Compound 1204, 4-[4-(3-Adamantan-1-yl-ureido)-piperidine-1-carbonyl]-benzoic acid methyl ester]
0.00	0.00	0.00	0.00	0.00	0.00	0.00	0.00	0.00	0.00	0.00	2.7	1206 (Opaque)	COC(=O)CCCC(=O)N1CCC(NC(=O)NC23CC4CC(CC(C4)C2)C3)CC1 [Compound 1206, 5-[4-(3-Adamantan-1-yl-ureido)-piperidin-1-yl]-5-oxo-pentanoic acid methyl ester]
